Data on one molecule can be found in BindingDB's records for doi:10.7270/Q2J964TC (Burnham Center for Chemical Genomics, 2010).

In this assay the target is T1, Mannose-6-phosphate isomerase (Homo sapiens, UniProt P34949).
T1 sequence (P34949 whole entry): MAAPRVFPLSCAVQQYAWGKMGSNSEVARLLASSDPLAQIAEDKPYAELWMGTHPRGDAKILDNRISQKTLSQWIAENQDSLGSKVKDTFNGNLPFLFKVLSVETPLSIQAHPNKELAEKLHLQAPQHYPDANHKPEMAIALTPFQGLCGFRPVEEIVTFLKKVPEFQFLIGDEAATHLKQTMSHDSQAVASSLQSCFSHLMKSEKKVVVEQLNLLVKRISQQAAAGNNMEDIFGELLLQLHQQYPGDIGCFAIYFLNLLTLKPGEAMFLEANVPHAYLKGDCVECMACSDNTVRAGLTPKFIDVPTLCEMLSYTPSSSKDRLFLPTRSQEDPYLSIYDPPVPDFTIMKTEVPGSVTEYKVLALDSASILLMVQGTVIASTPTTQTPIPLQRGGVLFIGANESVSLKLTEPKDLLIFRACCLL
Nature of the assay: phosphomannose isomerase inhibition – biochemical, fluorescence intensity, confirmation (AID 1535).

Molecule `Oc1c(-c2ccccc2)sc2ccccc12` [2-phenyl-1-benzothiophen-3-one] had an IC50 of more than 100 µM.
